Assay results reported in US5780498A, “Endothelin receptor antagonists” (Ciba-Geigy Japan Limited, priority 1993, dated 1998).
pKi: −log10 of the molar value.

Tests used:
guinea pig trachea = molecular target: T1, guinea pig trachea (Cavia porcellus, UniProt H0VTF3); experiment: Contraction of guinea pig trachea (inhibition of ET-3 induced contraction); conditions: ET-3 contraction; Krebs-Henseleit solution; 60 mM KCl reference standard; read-out: pA2 (converted)
T1 construct: The trachea which is isolated from male Hartley guinea pigs; from tissue; host or cells: guinea pig (Hartley) tracheal rings, epithelium removed
T1 sequence (H0VTF3 27-415): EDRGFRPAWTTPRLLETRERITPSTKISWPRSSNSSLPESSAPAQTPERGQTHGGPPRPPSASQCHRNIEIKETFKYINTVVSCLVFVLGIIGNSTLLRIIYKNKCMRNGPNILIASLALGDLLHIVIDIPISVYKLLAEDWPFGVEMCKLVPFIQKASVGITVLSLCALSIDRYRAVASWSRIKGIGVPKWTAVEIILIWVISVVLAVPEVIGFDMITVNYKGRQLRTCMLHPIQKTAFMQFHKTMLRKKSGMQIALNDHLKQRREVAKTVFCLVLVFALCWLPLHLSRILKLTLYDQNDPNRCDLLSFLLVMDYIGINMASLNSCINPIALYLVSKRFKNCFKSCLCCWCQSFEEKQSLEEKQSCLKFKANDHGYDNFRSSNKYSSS
Procedure: Contraction assays are performed basically according to the published method (M. Takai et al. Biochem. Biophys. Res. Commun. 184, 953-959, 1992). The trachea which is isolated from male Hartley guinea pigs weighing 350-500 g, is cut into rings of approximately 2 mm length after removal of the adherent fat and connective tissues. The epithelium is removed mechanically from the rings. The preparations are placed in organ baths containing a Krebs-Henseleit or Tyrode solution at 37° C., pH 7.4 bubbled with 95% O2 and 5% CO2. Tension is measured isometrically via a force-displacement transducer (Nikhon Kohden, Tokyo, TB-612T) under an initial tension of 1 g. Concentration-response curves for ET-3 are obtained by its cumulative application. Inhibitory activities of given compounds are investigated by the addition of their DMSO solutions into the baths 10 to 40 min before the addition of ET-3. These activities are evaluated numerically by pA2 values which are negative logarithms of compound concentrations inducing a shift of the ET-3 concentration-effective curves toward the 2-fold higher concentration range of ET-3. Contraction produced by 60 mM KCl or 10 μM carbachol is used as a reference standard.

ETB receptor = molecular target: T2, ETB receptor (Sus scrofa, UniProt P35463); experiment: Endothelin (ET) receptor binding assay, ETB ([125I]ET-3 alone, porcine lung plasma membrane); conditions: for inhibition at 0.1 µM: 10^-7 M of the test compound, specific ETB binding; for pKi: from inhibition curves for the binding of [125I]ETs
T2 construct: The plasma membrane of porcine lung; from tissue; host or cells: porcine lung plasma membrane
T2 sequence (P35463 27-443): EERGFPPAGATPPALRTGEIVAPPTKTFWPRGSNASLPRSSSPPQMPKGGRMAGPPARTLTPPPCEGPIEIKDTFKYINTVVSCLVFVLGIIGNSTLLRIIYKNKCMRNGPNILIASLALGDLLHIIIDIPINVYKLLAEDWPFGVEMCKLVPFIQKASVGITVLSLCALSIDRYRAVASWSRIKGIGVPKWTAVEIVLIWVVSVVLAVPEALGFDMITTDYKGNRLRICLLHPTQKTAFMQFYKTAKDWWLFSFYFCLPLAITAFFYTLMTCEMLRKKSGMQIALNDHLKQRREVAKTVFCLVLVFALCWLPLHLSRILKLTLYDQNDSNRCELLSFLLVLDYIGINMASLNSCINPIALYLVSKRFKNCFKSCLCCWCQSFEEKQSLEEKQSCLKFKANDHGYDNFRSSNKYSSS
Procedure: (§1) Nonspecific binding is defined as membrane-associated radioactivity in the presence of saturating concentrations of ETs (100 nM). Nonspecific binding is subtracted from the total binding and the difference is defined as specific binding.

ETA receptor = molecular target: T3, ETA receptor (Sus scrofa, UniProt Q29010); experiment: Endothelin (ET) receptor binding assay, ETA ([125I]ET-1 in the presence of 1 nM nonlabeled ET-3, porcine lung plasma membrane); conditions: for inhibition at 10 µM: 10^-5 M of the test compound, specific ETA binding; for pKi: from inhibition curves for the binding of [125I]ETs
T3 construct: The plasma membrane of porcine lung; from tissue; host or cells: porcine lung plasma membrane
T3 sequence (Q29010 21-427): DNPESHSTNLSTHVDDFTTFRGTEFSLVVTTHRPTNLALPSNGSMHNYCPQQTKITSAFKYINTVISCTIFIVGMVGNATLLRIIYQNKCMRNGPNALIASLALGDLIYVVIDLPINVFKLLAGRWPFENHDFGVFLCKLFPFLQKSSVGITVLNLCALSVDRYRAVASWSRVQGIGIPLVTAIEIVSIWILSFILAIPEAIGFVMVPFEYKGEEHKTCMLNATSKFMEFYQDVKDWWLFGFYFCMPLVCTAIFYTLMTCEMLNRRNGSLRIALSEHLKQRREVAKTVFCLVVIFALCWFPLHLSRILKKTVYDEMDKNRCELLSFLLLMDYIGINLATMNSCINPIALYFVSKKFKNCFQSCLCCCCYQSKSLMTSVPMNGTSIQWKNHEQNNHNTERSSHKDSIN
Procedure: as §1

Structure (SMILES) | Kb (guinea pig trachea) | inhibition at 0.1 µM (ETB receptor) | inhibition at 10 µM (ETA receptor) | pKi (ETB receptor) | pKi (ETA receptor)
Cc1cc(C)cc(C(=O)N(C)[C@H](Cc2ccccc2)C(=O)N[C@@H](Cc2c[nH]c3ccccc23)C(=O)O)c1 [Example 1, N-(3,5-Dimethylbenzoyl)-N-methyl-(D)-phenylalanyl-(L)-tryptophan] | 501 nM | 55% | 37% | – | –
Cc1cc(C)cc(C(=O)N(C)[C@H](Cc2ccc(-c3ccccc3)cc2)C(=O)N[C@@H](Cc2c[nH]c3ccccc23)c2nn[nH]n2)c1 [Example 4, 5-[N-(3,5-dimethylbenzoyl)-N-methyl-(D)-(4-phenylphenyl)alanyl-(L)-tryptophanyl]-1H-tetrazole] | – | 93% | 74% | – | –
Cc1cc(C)cc(C(=O)N(C)[C@H](Cc2ccc(-c3ccccc3)cc2)C(=O)NC(Cc2csc3ccccc23)C(=O)O)c1 (some centres unmarked) [Example 7] | – | 87% | 77% | – | –
Cc1cc(C)cc(C(=O)N(C)[C@H](Cc2ccc(-c3ccccc3)cc2)C(=O)N(C)[C@@H](Cc2c[nH]c3ccccc23)C(=O)O)c1 [Example 12, N-(3,5-Dimethylbenzoyl)-N-methyl-(D)-(4-phenylphenyl)alanyl-N-methyl-(L)-tryptophan] | – | 91% | 36% | – | –
Cc1cc(C)cc(C(=O)N(C)[C@H](Cc2ccc(-c3ccccc3)cc2)C(=O)N[C@@H](Cc2c[nH]c3ccccc23)C(=O)O)c1 [Example 55, N-(3,5-Dimethylbenzoyl)-N-methyl-(D)-(4-phenylphenyl)alanyl-(L)-tryptophan] | – | 100% | 94% | 9.00 | 6.36
Cc1cc(C)cc(C(=O)N(C)C(C(=O)N[C@@H](Cc2c[nH]c3ccccc23)C(=O)O)C(c2ccccc2)c2ccccc2)c1 (some centres unmarked) [Example 57, N-(3,5-dimethylbenzoyl)-N-methyl-(D,L)-3-(diphenyl)alanyl-(L)-tryptophan] | – | 95% | 34% | – | –
COc1ccc(C[C@H](C(=O)N[C@@H](Cc2c[nH]c3ccccc23)C(=O)O)N(C)C(=O)c2cc(C)cc(C)c2)cc1 [Example 65, N-(3,5-dimethylbenzoyl)-N-methyl-O-methyl-(D)-tyrosyl-(L)-tryptophan] | – | 59% | 47% | – | –
Cc1cc(C)cc(C(=O)N(C)[C@H](Cc2ccc(-c3ccccc3)cc2)C(=O)CC(Cc2c[nH]c3ccccc23)C(=O)O)c1 (some centres unmarked) [Example 84] | – | 70% | 46% | – | –
Cc1cc(C)cc(C(=O)N(C)[C@H](Cc2ccc(-c3ccsc3)cc2)C(=O)N[C@@H](Cc2c[nH]c3ccccc23)C(=O)O)c1 [Example 91, N-(3,5-dimethylbenzoyl)-N-methyl-(D)-3-[4-(3-thienyl)phenyl]alanyl-(L)-tryptophan] | – | 100% | 100% | 9.64 | 7.27
Cc1cc(C)cc(C(=O)N(C)[C@H](Cc2ccc(-c3cccs3)cc2)C(=O)N[C@@H](Cc2c[nH]c3ccccc23)C(=O)O)c1 [Example 93, N-(3,5-dimethylbenzoyl)-N-methyl-(D)-3-[4-(2-thienyl)phenyl]alanyl-(L)-tryptophan] | – | – | – | 9.22 | 7.06
Cc1cc(C)cc(C(=O)N(C)[C@H](Cc2ccc(-c3ccno3)cc2)C(=O)N[C@@H](Cc2c[nH]c3ccccc23)C(=O)O)c1 [Example 95, N-(3,5-dimethylbenzoyl)-N-methyl-(D)-3-[4-(5-isoxazolyl)phenyl]alanyl-(L)-tryptophan] | – | 98% | 98% | 9.68 | 7.35
